Data from ChEMBL document CHEMBL2073890, “Multispecific amphipathic substrate transport by an organic anion transporter of human liver” (J Hepatol, 1996).

Experiments:
Type in all cases: functional, cell-based, Oocyte
[1] = target: T1, Solute carrier organic anion transporter family member 1A2 (OATP1A2) (Homo sapiens, UniProt P46721); assay: TP_TRANSPORTER: uptake in Xenopus laevis oocytes
T1 sequence (P46721 whole entry): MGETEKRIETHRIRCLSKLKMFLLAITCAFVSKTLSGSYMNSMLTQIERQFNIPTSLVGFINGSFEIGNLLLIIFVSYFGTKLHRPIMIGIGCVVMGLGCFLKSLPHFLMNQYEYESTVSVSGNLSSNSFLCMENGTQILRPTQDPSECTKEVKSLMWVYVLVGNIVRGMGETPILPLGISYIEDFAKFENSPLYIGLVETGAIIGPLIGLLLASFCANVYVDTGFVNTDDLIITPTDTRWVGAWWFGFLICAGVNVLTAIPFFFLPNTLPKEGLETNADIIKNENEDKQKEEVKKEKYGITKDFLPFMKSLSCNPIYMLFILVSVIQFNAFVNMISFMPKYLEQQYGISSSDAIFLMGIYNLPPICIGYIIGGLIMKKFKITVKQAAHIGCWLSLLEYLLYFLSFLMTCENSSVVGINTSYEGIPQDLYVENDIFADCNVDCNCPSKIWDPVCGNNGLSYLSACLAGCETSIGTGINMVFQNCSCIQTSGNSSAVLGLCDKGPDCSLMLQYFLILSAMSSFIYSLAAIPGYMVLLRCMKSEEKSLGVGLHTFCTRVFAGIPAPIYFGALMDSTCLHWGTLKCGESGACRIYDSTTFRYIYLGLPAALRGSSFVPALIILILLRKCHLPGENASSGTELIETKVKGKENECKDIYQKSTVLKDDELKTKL

[2] = target: T1, Solute carrier organic anion transporter family member 1A2 (OATP1A2); assay: TP_TRANSPORTER: inhibition of Ouabain uptake (Ouabain: 100 uM, TCDC: 100 uM) in Xenopus laevis oocytes; conditions: probe Ouabain
[3] = target: T1, Solute carrier organic anion transporter family member 1A2 (OATP1A2); assay: TP_TRANSPORTER: inhibition of E1S uptake (E1S: 0.2 uM, TCDC: 100 uM) in Xenopus laevis oocytes; conditions: probe E1S (estrone sulfate)

inhibition at 100 µM [2] [%] | inhibition at 100 µM [3] [%] | Compound | Km [1] [µM]
 |  | C[C@]12CC[C@@H]3c4ccc(OS(=O)(=O)O)cc4CC[C@H]3[C@@H]1CCC2=O [ESTRONE SULFURIC ACID] | 59
 |  | C[C@@H]1O[C@@H](O[C@H]2C[C@@H](O)[C@]3(CO)[C@H]4[C@H](O)C[C@]5(C)[C@@H](C6=CC(=O)OC6)CC[C@]5(O)[C@@H]4CC[C@]3(O)C2)[C@H](O)[C@H](O)[C@H]1O [OUABAIN] | 5500
100 | 91 | C[C@H](CCC(=O)NCCS(=O)(=O)O)[C@H]1CC[C@H]2[C@@H]3[C@H](O)C[C@@H]4C[C@H](O)CC[C@]4(C)[C@H]3CC[C@]12C [TAUROCHENODEOXYCHOLATE] | 
